Entries after “also recorded” stand apart in the source; their conditions may differ.
How the values were obtained:
B16F10 cells = test: Measurement of melanin content in B16F10 cells; format: cell-based, murine; settings: 48 h; for increase of intracellular melanin content: vs untreated cells
Procedure: Measurement of melanin content was carried out according to a previously described method with a slight modification ([Karunarathne et al., 2019]). B16F10 cells were cultured in 6-well plates at the density of 2 × 10^5 cells/mL overnight before being treated with different concentrations of test samples for 48 h. After the treatments, the medium was discarded and the cells were washed twice with PBS and were collected, then 200 μL of RIPA lysis buffer was added to each well, and left standing in an ice bath for 40 min. The lysates were then clarified by centrifugation for 20 min at 4°C, 12,000 r/min. The protein content in the supernatants was measured using the Pierce BCA protein assay kit. Then the harvested cell pellets were photographed and dissolved in 100 μL of 1 M NaOH (containing 10% DMSO) at 100°C for 1 h. Melanin content was determined by measuring absorption at 405 nm. For the accurate calculation of melanin content, absorbance values were normalized to total protein absorbance values.

[1] = target: T1, Intracellular tyrosinase in B16F10 cells (Mus musculus, UniProt P11344); test: Measurement of tyrosinase activity in B16F10 cells (L-DOPA oxidation); format: cell-based, murine; settings: 48 h
T1 construct: endogenous in cells; host or cells: B16F10 murine melanoma cells
T1 sequence (P11344 19-533): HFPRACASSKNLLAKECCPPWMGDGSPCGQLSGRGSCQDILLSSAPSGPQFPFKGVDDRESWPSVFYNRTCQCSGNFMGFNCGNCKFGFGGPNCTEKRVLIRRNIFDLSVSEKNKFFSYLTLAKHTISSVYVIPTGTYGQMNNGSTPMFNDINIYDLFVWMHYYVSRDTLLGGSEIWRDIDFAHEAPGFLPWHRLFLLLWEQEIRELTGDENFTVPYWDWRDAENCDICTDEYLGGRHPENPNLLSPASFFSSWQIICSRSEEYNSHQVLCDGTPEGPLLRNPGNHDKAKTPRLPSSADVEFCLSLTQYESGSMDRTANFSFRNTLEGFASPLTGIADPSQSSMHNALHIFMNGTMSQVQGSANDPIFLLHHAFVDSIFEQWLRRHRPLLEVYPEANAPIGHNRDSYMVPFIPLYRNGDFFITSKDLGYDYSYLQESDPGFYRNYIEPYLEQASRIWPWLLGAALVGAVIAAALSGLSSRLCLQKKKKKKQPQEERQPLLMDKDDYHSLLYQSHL
Procedure: Intracellular tyrosinase activity was determined by measuring the rate of oxidation of L-DOPA to dopachrome according to a previously described method with a slight modification ([Maack and Pegard, 2016]). The tyrosinase inhibitor glabridin ([Zhang et al., 2023]) and tyrosinase activator 8-MOP ([Yin et al., 2018]) were both utilized as controls to ensure the accuracy of tyrosinase activity assay in living cells. B16F10 cells were cultured in 24-well plates at the density of 5 × 10^4 cells/mL overnight and then treated with different concentrations of test samples for 48 h. After treatments, cells were washed twice with PBS, lysed with PBS containing 1% Triton X-100, and frozen at −80°C for 1 h. The lysates were then clarified by centrifugation for 20 min at 4°C, 12,000 r/min. The protein content in the supernatants was measured using the Pierce BCA protein assay kit. After protein quantification and the adjustment of the protein concentrations, 100 μL of each lysate was mixed with 100 μL of 4 mM L-DOPA in a 96-well plate, and then incubated at 37°C for 1 h, the optical density at 475 nm was measured using a microplate reader. Tyrosinase activity was expressed as a percentage of the control. All experiments were carried out at least three times.

TRP-1 = test: Western blotting of TRP-1 in B16F10 cells; format: cell-based, murine; settings: 48 h
Procedure: (§1) Equal amounts of proteins from the preceding step were loaded and separated by using the 10% SDS-PAGE gels before being electro-transferred onto polyvinylidene fluoride membranes. The membrane was then blocked with 5% skim milk in TBST (Tris-buffered saline containing 0.1% Tween 20) at room temperature for 2 h. The blots were incubated overnight with primary antibodies against TYR, TRP-1, MITF, DCT, and β-actin at 4°C. After washing thrice with TBST (5 min), the membrane was incubated with the secondary antibody for 1 h at room temperature. The protein bands were detected using the ECL detection kit and imaged using a chemiluminescence gel imaging system, and the band intensities were analyzed by the Image J software.

zebrafish larvae [2] = test: Zebrafish depigmentation model (without PTU pretreatment); format: in vivo; settings: 48 h, no PTU pretreatment
Procedure: (§2) To assess the effects of these compounds on melanogenesis in vivo, the total melanin content of whole zebrafish extracts was measured according to a previously described method with minor modification ([Karunarathne et al., 2019]; [Ding et al., 2021]). Briefly, zebrafish larvae of 24 h post-fertilized (hpf) were seeded in 24-well plates with ten embryos per well, each group was set up with four replicates and pretreated with 200 μM PTU for 24 h. Then, the culture medium was replaced with different concentrations of test samples and treated for another 48 h. 8-MOP (50 μM) was used as a positive control, blank controls were not treated and were cultured normally. In addition, to further verify the whitening effect of the compounds, ten zebrafish larvae (24 hpf) per well were seeded in a 24-well plate and cultured for another 24 h using fresh culture media, and each group was set up with four duplicates. Then, the culture medium was replaced with different concentrations of test samples, and the zebrafish larvae were incubated for another 48 h. 8-MOP (50 μM) and arbutin (100 mM) were used as positive controls. Spontaneous melanin content was measured from zebrafish larvae at 96 hpf. The fish embryos were fixed upright with sodium carboxymethylcellulose fixative. Five fish embryos from each experiment were randomly selected for photography under a stereomicroscope. The densitometric analysis was performed using Image J software.

MITF = test: Western blotting of MITF in B16F10 cells; format: cell-based, murine; settings: 48 h
Procedure: as §1

[3] = Cell viability assay (MTT); format: cell-based, murine; settings: mouse, B16F10 cells
Procedure: B16F10 cells were seeded into 96-well plates at the density of 5 × 10^4 cells/mL, and incubated at 37°C for 24 h. Then, the cells were treated with different concentrations of test samples for 48 h. After incubation, 20 μL MTT (5 mg/mL) was added to each well, and incubated for another 4 h at 37°C. The reaction was stopped by adding 150 μL DMSO per well. The optical density at 490 nm was measured using a microplate reader. Cell viability was calculated as the percentage of viable cells relative to the control group.

zebrafish larvae [4] = test: Melanogenesis in zebrafish larvae pretreated with PTU; format: in vivo; settings: 48 h, PTU 200 μM pretreatment
Procedure: as §2

zebrafish embryos = test: Determination of the maximum tolerated concentration (MTC) in zebrafish embryos; format: in vivo; settings: 24 h
Procedure: Zebrafish embryos that were developing normally at 24 h were chosen at random, five zebrafish embryos per well were seeded in 48 well plates, and each group was set up with three duplicates. The embryo culture medium in the 48-well plate was removed except the blank group, and 1 mL of culture medium containing different concentrations of test samples was added to treatment groups for 24 h. The vehicle control group was added to the embryo culture medium containing 0.1% of DMSO.

DCT = test: Western blotting of DCT in B16F10 cells; format: cell-based, murine; settings: 48 h
Procedure: as §1

mushroom tyrosinase = mushroom tyrosinase (Agaricus bisporus, UniProt C7FF04); test: Tyrosinase inhibition kinetic analysis (Lineweaver-Burk); format: biochemical; settings: Lineweaver-Burk plots, L-tyrosine substrate
Procedure: The enzyme reaction kinetics of these compounds were measured by constructing Lineweaver-Burk plots of inverse velocities (1/[V]), contrary to the inverse of substrate concentration (1/[S]) ([Yoshino and Murakami, 2009]; [Butt et al., 2019]). Preincubations and measurement times were performed using the same protocol as described above. The substrate tyrosine concentration was kept between 0.5 and 8 mM in all kinetic studies, test sample concentrations were set as follows: glabridin (0–0.625 µM), KR (0–5 µM), SG (0–10 µM), IAI (0–2 µM). The values of the kinetic constants were calculated using Lineweaver-Burk plot analysis, and the maximum velocity (Vmax) and Michaelis constant (Km) were also calculated by the Lineweaver-Burk plots with the various concentrations of substrate.

tyrosinase = target: tyrosinase; design: method as in Kim et al., 2003; settings: ref Kim et al., 2003; read-out: IC50 (inhibition on tyrosinase activity); cited from earlier work
TYR = test: Western blotting of TYR in B16F10 cells; format: cell-based, murine; settings: 10 μM, 48 h
Procedure: as §1, with “[…],” for “TRP-1,”

Chain of mushroom tyrosinase (C7FF04 1-392): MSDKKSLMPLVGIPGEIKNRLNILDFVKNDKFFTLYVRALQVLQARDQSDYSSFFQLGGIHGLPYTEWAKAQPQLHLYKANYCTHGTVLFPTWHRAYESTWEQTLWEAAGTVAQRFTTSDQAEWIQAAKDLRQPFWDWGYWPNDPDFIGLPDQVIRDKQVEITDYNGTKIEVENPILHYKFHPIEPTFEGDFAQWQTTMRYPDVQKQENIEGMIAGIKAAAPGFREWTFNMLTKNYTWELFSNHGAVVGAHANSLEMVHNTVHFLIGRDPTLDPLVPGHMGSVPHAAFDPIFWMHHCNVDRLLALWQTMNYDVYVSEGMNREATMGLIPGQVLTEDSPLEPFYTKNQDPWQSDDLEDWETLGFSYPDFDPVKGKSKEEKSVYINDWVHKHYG

Structure (SMILES): COc1c2occc2cc2ccc(=O)oc12 [8-MOP, 8-methoxypsoralen, reference compound]
- effect on melanin production in B16F10 cells (in words) (B16F10 cells): promoted melanin biosynthesis
- effect on tyrosinase activity in B16F10 cells (in words) [1]: enhance cellular tyrosinase activity
- expression of TRP-1 (in words) (TRP-1; positive control): increased
- effect on melanin production vs control group (in words) (zebrafish larvae [2]): did not affect melanin production
- expression of MITF (in words) (MITF; positive control): increased
- viability at 48 h ([3]; 0–100 μM): > 80%
- increase of melanin production vs model (PTU) group (zebrafish larvae [4]; 50 μM): 25.0%

Structure (SMILES): CC1(C)C=Cc2c(ccc3c2OC[C@@H](c2ccc(O)cc2O)C3)O1 [Glabridin, glabridin, reference compound]
- effect on melanin production in B16F10 cells (in words) (B16F10 cells): strong anti-melanogenic effect
- effect on tyrosinase activity in B16F10 cells (in words) [1]: inhibited tyrosinase activity
- viability at 48 h ([3]; 0–2 μM): > 80%

Structure (SMILES): COc1cc(O)c2c(=O)c(O)c(-c3ccc(O)cc3)oc2c1CC=C(C)C [IAI, isoanhydroicaritin]
- effect on melanin production in B16F10 cells (in words) (B16F10 cells): did not exhibit significant activity; also recorded: did not exert any significant effects
- increase of tyrosinase activity in B16F10 cells ([1]; 5 μM): 25.2%
- effect on tyrosinase activity in B16F10 cells (in words) [1]: did not exhibit significant activity
- toxicity in zebrafish by the MTC assay (zebrafish embryos; 40, 80, and 160 μM): nontoxic
- upregulation of relative expression of TRP-1 protein (TRP-1; 5 μM): 240.0%
- reduction of pigmentation vs control group (zebrafish larvae [2]; 80 μM): 33.0%
- reduction of pigmentation vs control group (zebrafish larvae [2]; 160 μM): 34.4%
- upregulation of relative expression of DCT protein (DCT; 5 μM): 83.4%
- viability at 48 h ([3]; 0–5 μM): > 80%
- inhibition type on tyrosinase (mushroom tyrosinase): mixed type

Structure (SMILES): C=C(C)[C@H](CC=C(C)C)Cc1c(O)cc(OC)c2c1O[C@H](c1ccc(O)cc1O)CC2=O [KR, kurarinone]
- increase of intracellular melanin content (B16F10 cells; 5 μM): 61.6%
- increase of intracellular melanin content (B16F10 cells; 10 μM): 85.5%
- effect on melanin production in B16F10 cells (in words) (B16F10 cells): stimulated melanin production
- IC50 (tyrosinase): 6.2 µM
- increase of tyrosinase activity in B16F10 cells ([1]; 2.5 μM): 25.1%
- increase of tyrosinase activity in B16F10 cells ([1]; 5 μM): 42.1%
- increase of tyrosinase activity in B16F10 cells ([1]; 10 μM): 77.2%
- effect on tyrosinase activity in B16F10 cells (in words) [1]: enhanced intracellular tyrosinase activity
- toxicity in zebrafish by the MTC assay (zebrafish embryos; 5, 10, and 20 μM): nontoxic
- upregulation of relative expression of TRP-1 protein (TRP-1; 10 μM): 79.2%
- effect on melanin production vs control group (in words) (zebrafish larvae [2]): did not affect melanin production
- upregulation of relative expression of DCT protein (DCT; 10 μM): 127.8%
- upregulation of relative expression of MITF protein (MITF; 10 μM): 84.0%
- viability at 48 h ([3]; 0–20 μM): > 80%
- increase of melanin production vs model (PTU) group (zebrafish larvae [4]; 20 μM): 36.9%
- inhibition type on tyrosinase (mushroom tyrosinase): mixed type

Structure (SMILES): C=C(C)[C@H](CC=C(C)C)Cc1c(O)cc(O)c2c1O[C@H](c1ccc(O)cc1O)CC2=O [SG, sophoraflavanone G]
- effect on melanin production in B16F10 cells (in words) (B16F10 cells): did not exhibit significant activity; also recorded: did not exert any significant effects
- IC50 (tyrosinase): 6.6 µM
- increase of tyrosinase activity in B16F10 cells ([1]; 10 μM): 45.7%
- effect on tyrosinase activity in B16F10 cells (in words) [1]: did not exhibit significant activity
- toxicity in zebrafish by the MTC assay (zebrafish embryos; 10 μM): nontoxic
- upregulation of relative expression of TRP-1 protein (TRP-1; 10 μM): 229.3%
- upregulation of relative expression of DCT protein (DCT; 10 μM): 70.0%
- viability at 48 h ([3]; 0–10 μM): > 80%
- effect on melanin production vs model (PTU) group (in words) (zebrafish larvae [4]; 10 μM): no effect
- inhibition type on tyrosinase (mushroom tyrosinase): mixed type
- increase of expression of TYR (TYR): 78.4%

Structure (SMILES): OC[C@H]1O[C@@H](Oc2ccc(O)cc2)[C@H](O)[C@@H](O)[C@@H]1O [arbutin, reference compound]
- reduction of pigmentation vs control group (zebrafish larvae [2]; 100 mM): 51.4%

Structure (SMILES): C=C(C)[C@H](CC=C(C)C)Cc1c(O)cc(OC)c(C(=O)/C=C/c2ccc(O)cc2O)c1O [kuraridin, reference compound]
- IC50 (tyrosinase): 0.6 µM

From paper PMC11266098, “Prenylated flavonoids from Sophora flavescens inhibit mushroom tyrosinase activity and modulate melanogenesis in murine melanoma cells and zebrafish” (Frontiers in Pharmacology, 2024)
